Results taken from patent US20110039879A1, “METHODS FOR INCREASING WHITE BLOOD CELLS” (FibroGen ,Inc., priority 2007, published 2011).

Columns and labels:
Format in all cases: in vivo, Swiss-Webster mice
[1] = test system: total white blood cell (WBC); test: Total white blood cells by complete blood count on day 8, dosing day 1, 3, 5; details: Mus musculus, 192 h, mice, oral gavage, measured on day 8, read-out: Total WBC % Increase Over Control; for change in vivo at 60 mg/kg: 60 mg/kg on day 1, day 3 and day 5; for change in vivo at 100 mg/kg: 100 mg/kg on day 1, day 3 and day 5; for change in vivo at 200 mg/kg: 200 mg/kg on day 1, day 3 and day 5
How it was run: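 Male Swiss-Webster mice received test compound by oral gavage with a ball-tipped gavage needle on day 1, day 3 and day 5. On day 8, 200 μl of blood was collected and total white blood cell levels were determined by complete blood count on a CellDyn cell analyzer (Abbott Laboratories), expressed as percent change relative to control.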

[2] = test system: monocytes; test: Monocytes by complete blood count on day 8, dosing day 1, 3, 5; details: mice, oral gavage, measured on day 8
[3] = test system: neutrophils; test: Neutrophils by complete blood count on day 8, dosing day 1, 3, 5; details: mice, oral gavage, measured on day 8
[4] = test system: neutrophils; test: as above; details: Mus musculus, Neutrophil, 192 h, mice, oral gavage, measured on day 8, read-out: Neutrophils % Increase Over Control; for change in vivo at 60 mg/kg: 60 mg/kg on day 1, day 3 and day 5; for change in vivo at 100 mg/kg: 100 mg/kg on day 1, day 3 and day 5; for change in vivo at 200 mg/kg: 200 mg/kg on day 1, day 3 and day 5
Experimental: To examine the effect of compounds and methods of the present invention on increasing white blood cells, the following studies were performed. In one series of experiments, male Swiss-Webster mice were administered various compounds of the present invention via oral gavage using a ball-tipped gavage needle. […] Animals were dosed once daily for 3 or 4 days. Six hours after the final dosing, 200 μl blood samples were collected and total white blood cell, neutrophil, and lymphocyte levels were measured by complete blood count (CBC) using a CellDyn cell analyzer (Abbott Laboratories).
In another series of experiments, male Swiss-Webster mice were administered various compounds (see Table 7 and Table 8) of the present invention via oral gavage using a ball-tipped gavage needle. […] Total WBC, neutrophil, lymphocyte, and monocyte levels were measured in mice as described above on day 8 following administration of compound on day 1, day 3, and day 5.

[5] = test system: lymphocytes; test: Lymphocytes by complete blood count on day 8, dosing day 1, 3, 5; details: mice, oral gavage, measured on day 8; for change in vivo at 60 mg/kg / change in vivo at 100 mg/kg / change in vivo at 200 mg/kg: Mus musculus, Lymphocyte, 192 h, read-out: Lymphocytes % Increase Over Control
How it was run: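 Male Swiss-Webster mice received the compounds by oral gavage through a ball-tipped gavage needle on days 1, 3 and 5. On day 8, 200 μl blood samples were drawn and lymphocyte counts were obtained by complete blood count on a CellDyn cell analyzer (Abbott Laboratories). The change was expressed as percent increase relative to control animals.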

[6] = test system: total white blood cell (WBC); test: Total white blood cells by complete blood count on day 8, dosing day 1, 3, 5; details: mice, oral gavage, measured on day 8
[7] = 60 mg/kg on day 1, day 3 and day 5
[8] = Mus musculus, Monocyte, 192 h, 100 mg/kg on day 1, day 3 and day 5, read-out: Monocytes % Increase Over Control
[9] = 100 mg/kg on day 1, day 3 and day 5
[10] = Mus musculus, Monocyte, 192 h, 200 mg/kg on day 1, day 3 and day 5, read-out: Monocytes % Increase Over Control
[11] = 200 mg/kg on day 1, day 3 and day 5

| Compound | change in vivo at 100 mg/kg [1] | change in vivo at 100 mg/kg [2, 8] | Monocytes [2, 9] | Neutrophils [3, 9] | change in vivo at 100 mg/kg [4] | change in vivo at 100 mg/kg [5, 9] | Lymphocytes [5, 9] | Total WBC [6, 9] | further results |
| --- | --- | --- | --- | --- | --- | --- | --- | --- | --- |
| O=C(O)CNC(=O)c1ncc2cc(Br)ccc2c1O [Compound T, [(7-Bromo-4-hydroxy-isoquinoline-3-carbonyl)-amino]-acetic acid] | – | – | – | – | – | – | – | – | change in vivo at 60 mg/kg [1]: 17%; Monocytes [2, 7]: 0.0 10^3 cells/μl; Neutrophils [3, 7]: 1.0 10^3 cells/μl; change in vivo at 60 mg/kg [4]: 40%; change in vivo at 60 mg/kg [5, 7]: 13%; Lymphocytes [5, 7]: 6.2 10^3 cells/μl; Total WBC [6, 7]: 7.3 10^3 cells/μl |
| N#Cc1nc(C(=O)NCC(=O)O)c(O)c2ccn(Cc3ccc(F)cc3)c12 [Compound O, {[7-Cyano-1-(4-fluoro-benzyl)-4-hydroxy-1H-pyrrolo[2,3-c]pyridine-5-carbonyl]-amino}-acetic acid] | – | – | – | – | – | – | – | – | change in vivo at 60 mg/kg [1]: 86%; change in vivo at 60 mg/kg ([2]; Mus musculus, Monocyte, 192 h, 60 mg/kg on day 1, day 3 and day 5, read-out: Monocytes % Increase Over Control): 140%; Monocytes [2, 7]: 0.2 10^3 cells/μl; Neutrophils [3, 7]: 0.8 10^3 cells/μl; change in vivo at 60 mg/kg [4]: -3%; change in vivo at 60 mg/kg [5, 7]: 102%; Lymphocytes [5, 7]: 10.9 10^3 cells/μl; Total WBC [6, 7]: 11.9 10^3 cells/μl |
| N#Cc1nc(C(=O)NCC(=O)O)c(O)c2ccn(Cc3ccccc3F)c12 [Compound I, {[7-Cyano-1-(2-fluoro-benzyl)-4-hydroxy-1H-pyrrolo[2,3-c]pyridine-5-carbonyl]-amino}-acetic acid] | 95% | 425% | 0.2 10^3 cells/μl | 0.8 10^3 cells/μl | 17% | 127% | 12.1 10^3 cells/μl | 13.1 10^3 cells/μl | – |
| N#Cc1nc(C(=O)NCC(=O)O)c(O)c2cc(Oc3ccc(F)cc3)ccc12 [Compound D, {[1-Cyano-6-(4-fluoro-phenoxy)-4-hydroxy-isoquinoline-3-carbonyl]-amino}-acetic acid] | 152% | – | 0.2 10^3 cells/μl | 1.3 10^3 cells/μl | 242% | 140% | 9.3 10^3 cells/μl | 10.8 10^3 cells/μl | – |
| N#Cc1nc(C(=O)NCC(=O)O)c(O)c2c(Cl)c(Cl)n(Cc3ccccc3)c12 [Compound Q, [(1-Benzyl-2,3-dichloro-7-cyano-4-hydroxy-1H-pyrrolo[2,3-c]pyridine-5-carbonyl)-amino]-acetic acid] | – | – | – | – | – | – | – | – | change in vivo at 200 mg/kg [1]: 475%; change in vivo at 200 mg/kg [2, 10]: 14%; Monocytes [2, 11]: 0.1 10^3 cells/μl; Neutrophils [3, 11]: 2.5 10^3 cells/μl; change in vivo at 200 mg/kg [4]: 233%; change in vivo at 200 mg/kg [5, 11]: 522%; Lymphocytes [5, 11]: 36.0 10^3 cells/μl; Total WBC [6, 11]: 38.7 10^3 cells/μl |
| N#Cc1nc(C(=O)NCC(=O)O)c(O)c2c(Oc3ccc(Cl)cc3)cccc12 [Compound K, {[5-(4-Chloro-phenoxy)-1-cyano-4-hydroxy-isoquinoline-3-carbonyl]-amino}-acetic acid] | – | – | – | – | – | – | – | – | change in vivo at 200 mg/kg [1]: 491%; change in vivo at 200 mg/kg [2, 10]: 233%; Monocytes [2, 11]: 0.4 10^3 cells/μl; Neutrophils [3, 11]: 0.8 10^3 cells/μl; change in vivo at 200 mg/kg [4]: 34%; change in vivo at 200 mg/kg [5, 11]: 562%; Lymphocytes [5, 11]: 31.8 10^3 cells/μl; Total WBC [6, 11]: 33.0 10^3 cells/μl |
| Cc1ccc(Oc2cccc3c(C#N)nc(C(=O)NCC(=O)O)c(O)c23)cc1 [Compound BA, [(1-Cyano-4-hydroxy-5-p-tolyloxy-isoquinoline-3-carbonyl)-amino]-acetic acid] | 434% | 20% | 0.2 10^3 cells/μl | 0.7 10^3 cells/μl | 38% | 514% | 23.8 10^3 cells/μl | 24.7 10^3 cells/μl | – |
| Cc1cccc(C)c1Oc1ccc2c(O)c(C(=O)NCC(=O)O)nc(C#N)c2c1 [Compound AI, {[1-Cyano-7-(2,6-dimethyl-phenoxy)-4-hydroxy-isoquinoline-3-carbonyl]-amino}-acetic acid] | 266% | 0% | 0.1 10^3 cells/μl | 0.7 10^3 cells/μl | 45% | 303% | 17.4 10^3 cells/μl | 18.3 10^3 cells/μl | – |
| COc1ccc(Oc2cccc3c(C#N)nc(C(=O)NCC(=O)O)c(O)c23)cc1 [Compound N, {[1-Cyano-4-hydroxy-5-(4-methoxy-phenoxy)-isoquinoline-3-carbonyl]-amino}-acetic acid] | – | – | – | – | – | – | – | – | change in vivo at 200 mg/kg [1]: 125%; change in vivo at 200 mg/kg [2, 10]: 157%; Monocytes [2, 11]: 0.2 10^3 cells/μl; Neutrophils [3, 11]: 0.9 10^3 cells/μl; change in vivo at 200 mg/kg [4]: 60%; change in vivo at 200 mg/kg [5, 11]: 138%; Lymphocytes [5, 11]: 10.7 10^3 cells/μl; Total WBC [6, 11]: 12.0 10^3 cells/μl |
| Cc1cc(Cl)cc(C)c1Oc1ccc2c(C#N)nc(C(=O)NCC(=O)O)c(O)c2c1 [Compound J, {[6-(4-Chloro-2,6-dimethyl-phenoxy)-1-cyano-4-hydroxy-isoquinoline-3-carbonyl]-amino}-acetic acid] | 208% | 300% | 0.3 10^3 cells/μl | 0.9 10^3 cells/μl | 8% | 236% | 21.7 10^3 cells/μl | 23.0 10^3 cells/μl | – |
| N#Cc1nc(C(=O)NCC(=O)O)c(O)c2c(Cl)cn(Cc3ccccc3C(F)(F)F)c12 [Compound AT, {[3-Chloro-7-cyano-4-hydroxy-1-(2-trifluoromethyl-benzyl)-1H-pyrrolo[2,3-c]pyridine-5-carbonyl]-amino}-acetic acid] | 81% | 94% | 0.2 10^3 cells/μl | 0.8 10^3 cells/μl | 27% | 94% | 8.5 10^3 cells/μl | 9.4 10^3 cells/μl | – |
